According to publication PMC10060569 (Frontiers in Pharmacology, 2023):

Biological target: T1, S15V-hP2X3R (Homo sapiens, UniProt P56373, S15V)
T1 construct: expressed in transfected cells; host or cells: Xenopus laevis oocytes (cRNA injection)
T1 sequence (P56373 1-397 S15V): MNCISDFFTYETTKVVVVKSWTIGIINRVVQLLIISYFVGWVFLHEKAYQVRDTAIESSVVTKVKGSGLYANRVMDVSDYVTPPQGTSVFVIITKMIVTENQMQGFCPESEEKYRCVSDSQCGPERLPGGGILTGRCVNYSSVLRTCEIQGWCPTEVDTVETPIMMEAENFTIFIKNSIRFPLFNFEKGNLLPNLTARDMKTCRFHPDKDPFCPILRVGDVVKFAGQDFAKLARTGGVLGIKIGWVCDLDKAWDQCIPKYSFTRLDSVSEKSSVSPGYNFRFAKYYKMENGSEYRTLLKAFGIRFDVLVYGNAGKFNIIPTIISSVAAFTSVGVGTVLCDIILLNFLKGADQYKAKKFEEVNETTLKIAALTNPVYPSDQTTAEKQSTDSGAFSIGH
Experiment: TEVC of ATP-induced currents, S15V-hP2X3R expressed in X. laevis oocytes (peak current protocol)
Format: cell-based
Settings: for IC50: 30-s preincubation of antagonist, X. laevis oocytes, −60 mV, geometric mean
Text: Oocyte expression plasmids encoding the wild-type (wt) and N-terminally His-tagged (His-) fusion constructs of the hP2X2R, hP2X3R, hP2X4R, and hP2X7R, and the mutant His-^20RMVL^23KVIV^23S^26N-hP2X1R, S^15V-rP2X3R, and His-S^15V-hP2X3R were the same as used in previous research ([Hausmann et al., 2006]; [Wolf et al., 2011]; [Hausmann et al., 2014]; [Obrecht et al., 2019]). In most cases, the N-terminal His-tagged variants of P2XRs were used here and in the previous studies to allow biochemical analyses on affinity-purified proteins using the same constructs. Although this was not required for the present study, it allows for better comparability with our previous studies. Capped cRNAs of different P2XRs were already available in the research group or were synthesized as previously described ([Schmalzing et al., 1991]; [Stolz et al., 2015]). cRNA was injected into collagenase-defolliculated X. laevis oocytes in aliquots of 41 nl or 23 nl (see Supplementary Table S1 for the amount of cRNA used for expression of the indicated P2XR) using a Nanoliter 2000 injector (World Precision Instruments, Sarasota, United States of America) as described previously ([Hausmann et al., 2014]; [Stolz et al., 2015]; [Obrecht et al., 2019]). To express the heteromeric hP2X2/3 receptor, cRNAs encoding His-hP2X2R and wt-hP2X3R were coinjected at a ratio (w/w) of 1:6. Oocytes were stored at 19°C in an oocyte ringer solution (ORi^+) containing 90 mM NaCl, 1 mM KCl, 1 mM CaCl2, 1 mM MgCl2, and 10 mM HEPES (Carl Roth, Karlsruhe, Germany) adjusted to pH 7.4 with NaOH and supplemented with 50 μg/ml gentamicin (AppliChem, Darmstadt, Germany). The procedures followed for the maintenance of and the surgical treatment for X. laevis adults were approved by the governmental animal care and use committee of the State Agency for Nature, Environment, and Consumer Protection (LANUV, Recklinghausen, Germany; reference no. 81-02.04.2019. A355), in compliance with Directive 2010/63/EU of the European Parliament and of the Council on the protection of animals used for scientific purpose.
Ion currents mediated by P2X receptors were evoked by the indicated concentration of ATP or α,β-meATP and were recorded 1 or 2 days after cRNA injection at ambient temperature at a holding potential of −60 mV by two-electrode voltage clamp (TEVC) as previously described ([Hausmann et al., 2006]). Calcium-free ORi^− solution (90 mM NaCl, 1 mM KCl, 2 mM MgCl2, 10 mM HEPES, pH 7.4) was used to avoid bias due to calcium-activated chloride channels (CaCC) endogenously expressed in X. laevis oocytes ([Miledi, 1982]; [Methfessel et al., 1986]). For recordings of wt-hP2X7R, the composition of the ORi^− solution was modified according to protocols described previously and contained 100 mM NaCl, 2.5 mM KCl, 1 mM MgCl2, 5 mM HEPES, pH 7.4 ([Klapperstück et al., 2000]). The oocytes were continuously superfused with ORi^− by gravity flow (5–10 ml/min). The agonists ATP or α,β-meATP and the investigated NSAIDs were diluted in ORi^− on the day of the recording. […] A peak current protocol (Supplementary Figure S1) was used to analyze fast- and intermediate desensitizing P2XR subtypes (P2X1R, P2X3R, and S^15V-P2X3R), and a steady-state protocol (Supplementary Figure S2) was used for slowly or partially desensitizing P2X subtypes (P2X2R, P2X2/3R, and P2X4R). For recordings of P2X7R, a modified steady-state protocol was used ([Hausmann et al., 2006]). The application of different bath solutions was controlled by computer-operated magnetic valves controlled by the CellWorks E 5.5.1 software (npi electronic, Tamm, Germany).
Antagonist concentration–response data and IC50 values were calculated by normalizing ATP-induced responses to the control responses (recorded in the presence and absence of the antagonist, respectively). […]

Row | IC50 (1 µM ATP) | reduction of ATP-induced current amplitude at 100 µM antagonist (1 µM ATP) | inhibition at 1000 µM (1 mM antagonist, 1 µM ATP, mean ± SEM, read-out: Max. inhibition at 1 mM) | reversibility of the inhibitory effect by washout (subsequent control current after washout) | SMILES
1 | > 300 µM | 15%–18% |  |  | CC(C)Cc1ccc(C(C)C(=O)O)cc1 (stereo not drawn) [Ibuprofen, ibuprofen]
2 | > 300 µM | 15%–18% |  |  | COc1ccc2cc([C@H](C)C(=O)O)ccc2c1 [Naproxen, naproxen]
3 | > 300 µM | 15%–18% |  |  | Cc1ccc(Cl)c(Nc2ccccc2C(=O)O)c1Cl [Meclofenamic acid, meclofenamic acid]
4 | 32.4 µM |  | 53% | not reversible | Cc1c(Nc2ncccc2C(=O)O)cccc1C(F)(F)F [Flunixin, flunixin]
